The values that follow come from ChEMBL document CHEMBL4219148, “Discovery of a highly potent orally bioavailable imidazo-[1, 2-a]pyrazine Aurora inhibitor” (Bioorg Med Chem Lett, 2018).

A short description of data set [1]: Protein binding in human plasma. It is filed as ADME, cell-free. The note with it: read-out: PPB (converted).
A short description of data set [2]: Clearance in mouse at 3 mg/kg, iv. The class given is ADME, organism-based. The following applies: in vivo.
The target of data set [3] is Aurora kinase B (Homo sapiens, UniProt Q96GD4). Nature of the data set: Inhibition of Aurora B (unknown origin) using Tamra-PKAtide as substrate by fluorescence polarization assay.
The nature of data set [4]: AUC (0 to 48 hrs) in dog at 3 mg/kg, po. The class given is ADME, organism-based, Canis lupus familiaris. Also on record: dose 3 mg/kg, time < 48 hr, route oral. The note with it: in vivo.
Data set [5] is described as follows: Half life in dog at 1 mg/kg, iv. It is filed as ADME, organism-based, Canis lupus familiaris. The following applies: in vivo.
The target in data set [6] is Serine/threonine-protein kinase Nek2 (Homo sapiens, UniProt P51955). Nature of the data set: Inhibition of NEK2 (unknown origin).
Data set [7] concerns the target T1, Aurora kinase A (Homo sapiens, UniProt O14965).
T1 sequence (O14965 whole entry): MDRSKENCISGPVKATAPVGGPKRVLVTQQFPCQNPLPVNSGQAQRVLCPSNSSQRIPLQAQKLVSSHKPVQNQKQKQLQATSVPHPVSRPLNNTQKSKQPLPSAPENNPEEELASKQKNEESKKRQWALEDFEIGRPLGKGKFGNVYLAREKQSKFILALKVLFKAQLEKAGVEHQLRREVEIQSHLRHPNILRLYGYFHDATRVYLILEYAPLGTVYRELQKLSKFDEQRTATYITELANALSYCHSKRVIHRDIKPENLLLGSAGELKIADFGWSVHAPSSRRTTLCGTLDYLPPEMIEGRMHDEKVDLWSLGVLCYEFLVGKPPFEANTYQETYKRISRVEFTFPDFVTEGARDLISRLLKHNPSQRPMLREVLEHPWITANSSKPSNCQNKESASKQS
In words: Inhibition of Aurora A (unknown origin) using Tamra-PKAtide as substrate by fluorescence polarization assay.

Data set [8] in a line: Apparent permeability from apical to basolateral side in human intestinal Caco2 cells. It is filed as ADME, cell-based. The note with it: Caco-2. For orientation: Passage across Caco-2 layers is used to estimate intestinal permeability.
The target in data set [9] is RAC-alpha serine/threonine-protein kinase (Homo sapiens, UniProt P31749). In words: Inhibition of AKT1 (unknown origin).
Data set [10] in a line: Clearance in monkey at 1 mg/kg, iv. The following applies: rhesus monkey, in vivo. It is filed as ADME, organism-based, Macaca mulatta.
In data set [11] the target is T2, Serine/threonine-protein kinase 3 (Homo sapiens, UniProt Q13188).
T2 sequence (Q13188 whole entry): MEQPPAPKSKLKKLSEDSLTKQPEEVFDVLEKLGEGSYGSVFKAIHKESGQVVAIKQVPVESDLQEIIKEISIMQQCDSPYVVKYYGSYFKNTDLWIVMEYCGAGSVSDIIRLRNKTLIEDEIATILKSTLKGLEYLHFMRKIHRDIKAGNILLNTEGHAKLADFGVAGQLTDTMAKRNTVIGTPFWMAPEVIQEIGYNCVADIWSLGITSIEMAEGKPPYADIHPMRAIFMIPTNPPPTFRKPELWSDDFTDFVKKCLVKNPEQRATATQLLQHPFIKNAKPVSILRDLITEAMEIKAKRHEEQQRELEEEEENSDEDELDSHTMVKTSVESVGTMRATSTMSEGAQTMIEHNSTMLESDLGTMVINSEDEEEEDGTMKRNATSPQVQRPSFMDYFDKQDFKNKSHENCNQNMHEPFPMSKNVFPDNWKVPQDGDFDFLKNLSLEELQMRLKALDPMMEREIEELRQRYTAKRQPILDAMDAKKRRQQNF
In words: Inhibition of MST2 (unknown origin).

Data set [12] has as its target Tyrosine-protein kinase Lck (Homo sapiens, UniProt P06239). Nature of the data set: Inhibition of LCK (unknown origin).
Data set [13] has as its target Rho-associated protein kinase 2 (Homo sapiens, UniProt O75116). Nature of the data set: Inhibition of ROCK2 (unknown origin).
For data set [14], the target named is T3, Calcium/calmodulin-dependent protein kinase type IV (Homo sapiens, UniProt Q16566).
T3 sequence (Q16566 whole entry): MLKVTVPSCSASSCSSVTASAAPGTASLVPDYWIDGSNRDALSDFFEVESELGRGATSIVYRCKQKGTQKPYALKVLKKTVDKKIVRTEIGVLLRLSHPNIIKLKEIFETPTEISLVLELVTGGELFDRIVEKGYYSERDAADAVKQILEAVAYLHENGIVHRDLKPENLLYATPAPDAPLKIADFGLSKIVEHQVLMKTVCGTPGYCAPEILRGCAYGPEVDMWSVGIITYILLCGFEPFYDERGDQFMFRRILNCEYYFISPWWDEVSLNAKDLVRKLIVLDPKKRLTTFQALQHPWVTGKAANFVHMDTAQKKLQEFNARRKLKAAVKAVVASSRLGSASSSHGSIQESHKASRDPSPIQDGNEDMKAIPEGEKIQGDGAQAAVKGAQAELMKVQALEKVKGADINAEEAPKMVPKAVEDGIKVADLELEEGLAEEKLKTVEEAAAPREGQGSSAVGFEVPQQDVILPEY
In words: Inhibition of CAMK4 (unknown origin).

The target in data set [15] is Protein kinase C alpha type (Homo sapiens, UniProt P17252). Nature of the data set: Inhibition of PKCA (unknown origin).
Data set [16] addresses Cytochrome P450 3A4 (Homo sapiens, UniProt P08684). Nature of the data set: Inhibition of CYP3A4 in human liver microsomes. The class given is ADME. A general note: Microsomes from liver hold many membrane-bound enzymes, among them those of drug oxidation.
Data set [17] in a line: AUC (0 to 24 hrs) in mouse at 3 mg/kg, iv. It is filed as ADME, organism-based. The following applies: in vivo. Also on record: time < 24 hr, dose 3 mg/kg, route intravenous.
Data set [18] in a line: Clearance in dog at 1 mg/kg, iv. The note with it: in vivo. It is filed as ADME, organism-based, Canis lupus familiaris.
The nature of data set [19]: AUC (0 to 48 hrs) in monkey at 1 mg/kg, iv. The class given is ADME, organism-based, Macaca mulatta. More on the design: time < 48 hr, dose 1 mg/kg, route intravenous. The following applies: rhesus monkey, in vivo.
Data set [20] concerns the target Tyrosine-protein kinase JAK2 (Homo sapiens, UniProt O60674). Nature of the data set: Inhibition of JAK2 (unknown origin).
The target of data set [21] is T4, Inhibitor of nuclear factor kappa-B kinase subunit beta (Homo sapiens, UniProt O14920).
T4 sequence (O14920 whole entry): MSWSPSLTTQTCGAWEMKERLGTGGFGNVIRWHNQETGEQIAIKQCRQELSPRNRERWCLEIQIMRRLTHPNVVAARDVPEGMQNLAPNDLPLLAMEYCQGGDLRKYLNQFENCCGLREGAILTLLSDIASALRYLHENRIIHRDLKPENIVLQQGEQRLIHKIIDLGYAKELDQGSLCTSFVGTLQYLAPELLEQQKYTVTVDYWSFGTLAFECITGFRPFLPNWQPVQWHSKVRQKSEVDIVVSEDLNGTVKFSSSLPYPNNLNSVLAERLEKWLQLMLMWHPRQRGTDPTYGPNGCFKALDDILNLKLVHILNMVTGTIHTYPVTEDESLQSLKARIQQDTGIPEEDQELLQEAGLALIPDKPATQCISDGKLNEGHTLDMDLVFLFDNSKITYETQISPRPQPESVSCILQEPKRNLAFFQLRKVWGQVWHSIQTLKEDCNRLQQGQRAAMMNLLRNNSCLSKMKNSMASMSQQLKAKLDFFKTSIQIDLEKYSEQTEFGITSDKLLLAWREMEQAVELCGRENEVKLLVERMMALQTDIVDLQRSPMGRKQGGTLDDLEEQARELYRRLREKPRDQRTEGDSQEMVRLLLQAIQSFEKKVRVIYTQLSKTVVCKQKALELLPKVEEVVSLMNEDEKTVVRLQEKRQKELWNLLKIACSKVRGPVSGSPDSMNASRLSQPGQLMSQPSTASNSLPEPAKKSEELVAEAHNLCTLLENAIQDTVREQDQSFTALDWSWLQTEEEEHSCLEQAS
In words: Inhibition of IKKB (unknown origin).

A value given as a limit tells only on which side of the number the result lay.

Tyrosine-protein kinase Lck, sequence (P06239 whole entry): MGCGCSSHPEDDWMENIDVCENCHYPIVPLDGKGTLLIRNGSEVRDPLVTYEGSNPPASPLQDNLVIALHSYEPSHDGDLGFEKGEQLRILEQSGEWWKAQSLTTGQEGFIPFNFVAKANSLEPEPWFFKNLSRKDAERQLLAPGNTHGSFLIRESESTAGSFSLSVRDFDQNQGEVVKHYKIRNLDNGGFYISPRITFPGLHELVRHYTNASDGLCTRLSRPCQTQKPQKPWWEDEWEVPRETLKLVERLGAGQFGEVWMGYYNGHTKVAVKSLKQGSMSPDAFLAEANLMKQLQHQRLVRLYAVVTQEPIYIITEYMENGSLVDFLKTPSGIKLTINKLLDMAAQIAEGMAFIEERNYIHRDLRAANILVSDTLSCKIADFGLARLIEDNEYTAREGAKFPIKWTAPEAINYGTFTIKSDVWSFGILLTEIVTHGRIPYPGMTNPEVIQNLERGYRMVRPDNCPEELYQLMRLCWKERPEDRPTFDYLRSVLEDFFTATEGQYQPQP
Tyrosine-protein kinase JAK2, sequence (O60674 whole entry): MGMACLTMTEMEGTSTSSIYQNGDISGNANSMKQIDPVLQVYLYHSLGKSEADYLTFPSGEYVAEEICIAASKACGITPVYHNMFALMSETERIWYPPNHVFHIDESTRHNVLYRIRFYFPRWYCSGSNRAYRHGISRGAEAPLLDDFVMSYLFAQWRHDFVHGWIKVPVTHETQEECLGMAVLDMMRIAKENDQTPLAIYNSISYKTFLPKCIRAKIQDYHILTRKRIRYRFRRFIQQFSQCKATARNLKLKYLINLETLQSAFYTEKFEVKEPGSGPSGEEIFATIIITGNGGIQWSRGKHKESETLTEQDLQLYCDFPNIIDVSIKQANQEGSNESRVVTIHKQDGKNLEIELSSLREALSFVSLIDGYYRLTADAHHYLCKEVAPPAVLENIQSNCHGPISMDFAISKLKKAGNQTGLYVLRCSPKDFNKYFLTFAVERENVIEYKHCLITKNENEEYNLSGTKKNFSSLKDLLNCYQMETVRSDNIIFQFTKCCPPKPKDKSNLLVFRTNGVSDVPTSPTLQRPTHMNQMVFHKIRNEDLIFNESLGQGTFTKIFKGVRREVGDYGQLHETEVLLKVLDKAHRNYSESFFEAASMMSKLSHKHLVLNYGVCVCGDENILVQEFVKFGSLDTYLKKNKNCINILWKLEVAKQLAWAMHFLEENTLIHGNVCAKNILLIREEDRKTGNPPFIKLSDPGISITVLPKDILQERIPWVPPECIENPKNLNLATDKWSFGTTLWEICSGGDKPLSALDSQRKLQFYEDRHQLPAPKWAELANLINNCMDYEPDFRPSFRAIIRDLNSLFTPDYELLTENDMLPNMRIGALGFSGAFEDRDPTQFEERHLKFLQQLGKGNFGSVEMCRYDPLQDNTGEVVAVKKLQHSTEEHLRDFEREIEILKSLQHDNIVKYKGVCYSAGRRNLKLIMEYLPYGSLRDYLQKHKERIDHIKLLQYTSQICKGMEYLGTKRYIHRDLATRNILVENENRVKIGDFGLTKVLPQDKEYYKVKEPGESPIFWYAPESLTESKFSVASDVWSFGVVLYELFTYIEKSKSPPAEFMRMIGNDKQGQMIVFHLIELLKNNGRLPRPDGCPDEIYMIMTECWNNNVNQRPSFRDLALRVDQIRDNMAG
Aurora kinase B, sequence (Q96GD4 whole entry): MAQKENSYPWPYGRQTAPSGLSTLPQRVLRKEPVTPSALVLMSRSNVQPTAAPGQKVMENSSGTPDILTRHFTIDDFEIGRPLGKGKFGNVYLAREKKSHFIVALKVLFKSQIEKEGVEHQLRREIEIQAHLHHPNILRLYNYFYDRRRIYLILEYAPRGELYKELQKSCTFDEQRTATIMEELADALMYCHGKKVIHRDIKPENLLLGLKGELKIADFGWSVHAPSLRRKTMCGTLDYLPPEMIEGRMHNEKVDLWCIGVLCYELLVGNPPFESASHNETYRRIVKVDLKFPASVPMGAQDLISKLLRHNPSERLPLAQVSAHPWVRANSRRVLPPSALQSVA
RAC-alpha serine/threonine-protein kinase, sequence (P31749 whole entry): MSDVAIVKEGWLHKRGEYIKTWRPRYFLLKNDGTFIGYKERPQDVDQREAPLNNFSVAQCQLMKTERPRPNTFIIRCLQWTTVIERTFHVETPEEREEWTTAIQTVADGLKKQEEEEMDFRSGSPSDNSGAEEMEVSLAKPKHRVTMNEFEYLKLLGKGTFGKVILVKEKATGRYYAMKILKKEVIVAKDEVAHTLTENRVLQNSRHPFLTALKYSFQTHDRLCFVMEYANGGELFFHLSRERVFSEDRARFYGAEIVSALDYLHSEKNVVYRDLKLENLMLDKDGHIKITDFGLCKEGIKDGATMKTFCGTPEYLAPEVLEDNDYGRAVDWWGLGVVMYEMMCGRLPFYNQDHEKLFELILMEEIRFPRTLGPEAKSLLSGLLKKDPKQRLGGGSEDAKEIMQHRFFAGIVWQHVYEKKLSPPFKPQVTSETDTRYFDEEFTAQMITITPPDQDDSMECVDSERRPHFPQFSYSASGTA
Rho-associated protein kinase 2, sequence (O75116 whole entry): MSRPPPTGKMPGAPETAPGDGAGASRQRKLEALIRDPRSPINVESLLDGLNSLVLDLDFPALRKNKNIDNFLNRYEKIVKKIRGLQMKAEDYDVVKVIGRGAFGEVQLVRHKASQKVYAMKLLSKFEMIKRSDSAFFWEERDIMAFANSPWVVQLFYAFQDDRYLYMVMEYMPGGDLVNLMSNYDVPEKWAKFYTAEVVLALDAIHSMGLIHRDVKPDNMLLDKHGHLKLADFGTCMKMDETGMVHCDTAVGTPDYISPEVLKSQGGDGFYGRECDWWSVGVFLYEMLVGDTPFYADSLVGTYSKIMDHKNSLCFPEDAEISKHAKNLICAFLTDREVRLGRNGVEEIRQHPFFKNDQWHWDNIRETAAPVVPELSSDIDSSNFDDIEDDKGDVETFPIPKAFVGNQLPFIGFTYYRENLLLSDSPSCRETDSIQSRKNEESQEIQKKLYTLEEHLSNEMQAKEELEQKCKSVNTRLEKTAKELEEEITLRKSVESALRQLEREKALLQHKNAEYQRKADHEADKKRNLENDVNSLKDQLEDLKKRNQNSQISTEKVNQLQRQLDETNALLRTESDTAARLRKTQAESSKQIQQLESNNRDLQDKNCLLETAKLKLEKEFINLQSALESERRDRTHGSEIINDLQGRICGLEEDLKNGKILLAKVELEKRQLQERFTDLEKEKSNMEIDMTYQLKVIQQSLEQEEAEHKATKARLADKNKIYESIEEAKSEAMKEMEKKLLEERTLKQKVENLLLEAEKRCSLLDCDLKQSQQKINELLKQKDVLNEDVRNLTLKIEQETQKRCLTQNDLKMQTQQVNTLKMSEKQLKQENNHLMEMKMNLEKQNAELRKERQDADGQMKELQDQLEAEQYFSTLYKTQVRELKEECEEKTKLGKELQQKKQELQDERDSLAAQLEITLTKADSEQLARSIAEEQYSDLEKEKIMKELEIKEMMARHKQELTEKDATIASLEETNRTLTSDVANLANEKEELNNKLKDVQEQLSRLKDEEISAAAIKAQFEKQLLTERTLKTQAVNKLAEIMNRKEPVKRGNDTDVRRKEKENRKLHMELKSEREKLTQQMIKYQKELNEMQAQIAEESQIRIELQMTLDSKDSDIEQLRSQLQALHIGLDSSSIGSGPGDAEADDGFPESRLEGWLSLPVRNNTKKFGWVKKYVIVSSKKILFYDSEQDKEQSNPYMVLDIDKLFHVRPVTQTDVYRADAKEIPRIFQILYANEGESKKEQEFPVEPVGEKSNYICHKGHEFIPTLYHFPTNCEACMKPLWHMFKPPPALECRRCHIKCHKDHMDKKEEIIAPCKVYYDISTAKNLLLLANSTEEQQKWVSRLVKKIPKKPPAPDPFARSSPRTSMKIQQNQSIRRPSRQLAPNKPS
Serine/threonine-protein kinase Nek2, sequence (P51955 whole entry): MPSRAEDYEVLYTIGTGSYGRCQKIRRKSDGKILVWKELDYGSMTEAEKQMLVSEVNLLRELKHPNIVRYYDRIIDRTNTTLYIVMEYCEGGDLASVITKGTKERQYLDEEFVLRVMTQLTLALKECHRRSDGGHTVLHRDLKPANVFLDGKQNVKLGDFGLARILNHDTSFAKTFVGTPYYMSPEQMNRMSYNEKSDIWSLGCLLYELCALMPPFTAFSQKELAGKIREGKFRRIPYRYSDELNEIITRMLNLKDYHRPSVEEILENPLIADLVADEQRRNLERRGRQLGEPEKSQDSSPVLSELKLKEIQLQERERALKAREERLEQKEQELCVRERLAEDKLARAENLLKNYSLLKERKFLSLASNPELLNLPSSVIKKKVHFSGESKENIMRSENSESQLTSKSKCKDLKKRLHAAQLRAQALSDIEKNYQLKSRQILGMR

As for `Cc1cn2c(-c3cn[nH]c3)cnc2c(Nc2cc(Cc3ccccn3)ns2)n1`, the fraction unbound in [1] is 0.009. Besides, the results for the clearance in [2], in data set [10] and in [18] were 118 mL/min/kg, 28 mL/min/kg and 5 mL/min/kg, respectively. For the same compound, the IC50 (in general, the concentration at which inhibition is half-maximal) in [3] was less than 13 nM; in [6], greater than 500 nM; in data set [7] it was less than 4 nM; in data set [9] it was greater than 500 nM; in data set [11] it was greater than 500 nM; in data set [12], 271 nM. Further, the IC50 was greater than 500 nM in data set [13]; greater than 500 nM in [14]; greater than 500 nM in data set [15]; greater than 20000 nM in data set [16]; greater than 500 nM in data set [20]; greater than 500 nM in data set [21]. Also, the AUC(0-t) – broadly, the area under the concentration-time curve up to a stated or last time point – at 48 h in data set [4] amounted to 4.1 µM·h; in data set [19], 1.7 µM·h. The half-life (as a rule, the time in which the quantity being followed falls by half) in [5] is 0.8 h. In addition, the apparent permeability from apical to basolateral (Papp A→B) (as a rule, the apparent permeability from the apical to the basolateral side of a cell layer) in data set [8] was 2.8 ×10⁻⁶ cm/s. Further, the AUC(0-t) at 24 h in [17] was found to be 1.1 µM·h.
Take `CCN(CCO)Cc1cc(Nc2nc(C)cn3c(-c4cn[nH]c4)cnc23)sn1`: the IC50 was less than 13 nM in data set [3]; greater than 500 nM in data set [6]; less than 4 nM in [7]; greater than 500 nM in [9]; greater than 500 nM in data set [11]; less than 1 nM in data set [12]. Also, the IC50 in data set [13], in data set [14], in [15], in data set [20] and in data set [21] was greater than 500 nM each time. Further, in data set [8], the Papp A→B is 2.1 ×10⁻⁶ cm/s.
For `Cc1cn2c(-c3cn[nH]c3)cnc2c(Nc2cc(C(NC(C)(C)C)c3ccccn3)ns2)n1` (single isomer, unassigned; (+)), in [1], the fraction unbound was 0.012. Moreover, the clearance (in general, a measure of how efficiently the substance is removed, as volume per time) is 50 mL/min/kg in [2], 7.4 mL/min/kg in data set [10] and 9.4 mL/min/kg in data set [18]. For the same compound, the IC50 in [3] is no more than 13 nM; in data set [7] it was no more than 4 nM; in data set [9], greater than 1000 nM; in data set [11], greater than 1000 nM; in data set [12], 61 nM; in data set [13], greater than 1000 nM. Also, the IC50 in data set [14] is greater than 1000 nM; in data set [15], greater than 1000 nM; in data set [16], greater than 20000 nM; in [20], greater than 1000 nM; in data set [21], greater than 1000 nM. The area under the curve AUC(0-t) at 48 h turned out to be 10.1 µM·h in data set [4] and 5 µM·h in [19]. In addition, the half-life in data set [5] is 4.6 h. Moreover, the Papp A→B in [8] came to 2.4 ×10⁻⁶ cm/s. In data set [17], this compound registered an AUC(0-t) at 24 h of 2.2 µM·h.
